Measured values as given in patent publication US20230114107A1, “COMBINATION ANTI-CANCER THERAPIES WITH INDUCERS OF IRON-DEPENDENT CELLULAR DISASSEMBLY” (Flagship Pioneering Innovations V, Inc., priority 2019, published 2023).

What was measured:
[1] = tested on: NFKB reporter in THP1-Dual cells; assay: NFKB reporter activity in THP1-Dual monocytes co-cultured with treated HT1080 cells; type: cell-based, human
Procedure: HT1080 fibrosarcoma cells were treated with either control (DMSO) or various doses of Erastin, piperazine erastin (PE), or imidazole ketoerastin (IKE) for 24 hours prior to co-culture with THP1-Dual cells for an additional 24 hours. Erastin was purchased from Selleckchem (Houston, Tex.) and dissolved in DMSO. Subsequently, the THP1 supernatants were assessed for nuclear factor kappa-light-chain-enhancer of activated B cells (NFKB) or interferon regulatory factor (IRF) reporter activity.
HT1080 cells were acquired from ATCC and THP1-Dual cells were acquired from InvivoGen (San Diego, Calif.). THP1-Dual cells are human monocyte cells that induce reporter proteins upon activation of either NFKB or IRF pathways. Both cell types were cultured in 96-well plates for the duration of the assay. HT1080 cells were cultured in DMEM with 10% FBS, and THP1-Dual cells were cultured in RPMI with 10% FBS. 7,500 HT1080 cells were plated 24 hours prior to dosing with Erastin, PE, or IKE, with a final DMSO concentration of 0.5%. 24 hours post-treatment, THP1-Dual cells (25,000 cells/well) were added to the HT1080 cells. 24 hours later, 30 μl of supernatant was mixed with either 200 μl QuantiBlue (InvivoGen, San Diego, Calif.) (for NFKB reporter activity) or 50 μl QuantiLuc (for IRF reporter activity) and absorbance or luminescence was recorded on a Molecular Devices plate reader.
HT1080 fibrosarcoma cells were treated with various doses of Erastin (e.g. […], 0.16, 0.31, 0.63, 1.25, 2.5, 5, 10 or 20 μM) alone or in combination with a ferroptosis inhibitor (1 μM Ferrostatin-1, 1 μM Liproxstatin-1, 100 μM Trolox, 25 μM β-Mercaptoethanol or 100 μM Deferoxamine) for 24 hours prior to co-culture with THP1-Dual cells for an additional 24 hours. Ferrostatin-1 and Liproxstatin-1 were purchased from Selleckchem (Houston, Tex.) and dissolved in DMSO. Trolox was purchased from Cayman Chemical Company Inc and resuspended in DMSO. […] Subsequently, the THP1 supernatant was assessed for NFKB activity. […]
HT1080 fibrosarcoma cells were treated with various doses of Erastin (ferroptosis inducer), docetaxel (apoptosis inducer) or H2O2 (necrosis inducer) for 24 hours prior to co-culture with THP1-Dual cells for an additional 24 hours. […] Subsequently, the THP1 supernatants were assessed for nuclear factor kappa-light-chain-enhancer of activated B cells (NFKB).
HT1080 cells were acquired from ATCC and THP1-Dual cells were acquired from InvivoGen (San Diego, Calif.). […] 24 hours later, 30 μl of supernatant was mixed with either 200 μl QuantiBlue (InvivoGen, San Diego, Calif.) (for NFKB reporter activity) or 50 μl QuantiLuc (for IRF reporter activity) and absorbance or luminescence was recorded on a Molecular Devices plate reader.

[2] = tested on: HT1080 fibrosarcoma cells; assay: Viability of HT1080 fibrosarcoma cells after 24 h treatment; type: cell-based; settings: various doses
[3] = tested on: NFkB reporter in THP1 monocytes; assay: Screen for innate immune activation: NFkB reporter in THP1 monocytes added to drug-treated HT-1080 cells; type: cell-based, human; settings: final compound concentration of 10 PM; reporter read 48h after THP-1 addition; FIG. 17
Procedure: Over 100 FDA-approved anticancer drugs and 6 inducers of ferroptosis were evaluated for their ability to induce innate immune activation, as measured by induction of an NFkB reporter in THP1 monocytes in vitro. The source of the approved anticancer drug compounds was plate Approved Oncology Drug (AOD) IX, available from the National Cancer Institute, Division of Cancer Treatment and Diagnosis (dtp.cancer.gov/organization/dscb/obtaining/available_plates.htm). Briefly, 20,000-30,000 HT-1080 cells were plated per well in 96 well plates, and 10 μl each of compounds from the AOD IX plates were added to each well, for a final compound concentration of 10 PM. The six inducers of ferroptosis listed above were also included in the experiment, as a comparison. After addition of the drug, cells were incubated overnight, and 50,000 THP-1 reporter cells were added to each well on the following day. Reporter induction was measured by colorimetry 48h after reporter cell addition.

[4] = tested on: Caki-1 renal cell carcinoma cells; assay: Viability of Caki-1 renal cell carcinoma cells after treatment; type: cell-based
[5] = tested on: NFKB reporter in THP1-Dual cells; assay: NFKB reporter activity in THP1-Dual monocytes co-cultured with treated A20 cells; type: cell-based, human; settings: for NFKB activity in THP1 cells, dose dependence: A20 lymphoma cells treated with GPX4 inhibitor, FIG. 10B, 11B, 12B
Procedure: A20 B-cell leukemia cells were treated with either control (DMSO) or various doses of RSL3, for 24 hours prior to co-culture with THP1-Dual cells for an additional 24 hours. RSL3 was purchased from Selleckchem (Houston, Tex.) and dissolved in DMSO. Subsequently, the THP1 supernatants were assessed for NFKB or IRF reporter activity.
A20 cells were acquired from ATCC and THP1-Dual cells acquired from InvivoGen (San Diego, Calif.). Both cell types were cultured in 96-well plates for the duration of the assay. 50,000 A20 cells were plated 24 hours prior to dosing with RSL3, with a final DMSO concentration of 0.5%. 24 hours post-treatment, THP1-Dual cells (25,000 cells/well) were added to the A20 cells. 24 hours later, 30 μl of supernatant was mixed with either 200 μl QuantiBlue (InvivoGen, San Diego, Calif.) or 50 μl QuantiLuc and absorbance or luminescence was recorded on a Molecular Devices plate reader.
A20 lymphoma cells were treated with various doses (e.g. 0.002, 0.005, 0.014, 0.041, 0.123, 0.370, 1.111, 3.333 and 10 μM) of a GPX4 inhibitor (RSL3, ML162 or ML210) in the presence or absence of 1 μM Ferrostatin-1 for 24 hours. ML162 was purchased from Cayman Chemical Company Inc and resuspended in DMSO. ML210 was purchased from Sigma-Aldrich and resuspended in DMSO. A20 lymphoma cells were also treated with DMSO as a negative control. After treatment with DMSO or a GPX4 inhibitor for 24 hours, the A20 lymphoma cells were co-cultured with THP1-Dual cells for an additional 24 hours. Subsequently, the THP1 supernatant was assessed for NFKB reporter activity. A20 cells were acquired from ATCC and THP1-Dual cells were acquired from InvivoGen (San Diego, Calif.). Both cell types were cultured in 96-well plates for the duration of the assay.

[6] = tested on: A20 B-cell leukemia cells; assay: Viability of A20 B-cell leukemia / lymphoma cells after treatment; type: cell-based; settings: for viability of A20 lymphoma cells, dose dependence: GPX4 inhibitor 0.002-10 μM, 24 hours, FIG. 10A, 11A, 12A
[7] = tested on: NFKB reporter in THP1-Dual cells; assay: NFKB reporter activity in THP1-Dual monocytes co-cultured with treated Caki-1 cells; type: cell-based, human
Procedure: Caki-1 renal cell carcinoma cells were treated with either control (DMSO) or various doses of Erastin, for 24 hours prior to co-culture with THP1-Dual cells for an additional 24 hours. Erastin was purchased from Selleckchem (Houston, Tex.) and dissolved in DMSO. Subsequently, the THP1 supernatants were assessed for NFKB or IRF reporter activity. Caki-1 cells were acquired from ATCC and THP1-Dual cells acquired from InvivoGen (San Diego, Calif.). Both cell types were cultured in 96-well plates for the duration of the assay. 7,500 Caki-1 cells were plated 24 hours prior to dosing with Erastin, with a final DMSO concentration of 0.5%. 24 hours post-treatment, THP1-Dual cells (25,000 cells/well) were added to the Caki-1 cells. 24 hours later, 30 μl of supernatant was mixed with either 200 μl QuantiBlue (InvivoGen) or 50 μl QuantiLuc and absorbance or luminescence was recorded on a Molecular Devices plate reader. Caki-1 renal cell carcinoma cells were treated with either control (DMSO) or various doses of RSL3, for 24 hours prior to co-culture with THP1-Dual cells for an additional 24 hours. RSL3 was purchased from Selleckchem and dissolved in DMSO. Subsequently, the THP1 supernatants were assessed for NFKB or IRF reporter activity. Caki-1 cells were acquired from ATCC and THP1-Dual cells acquired from InvivoGen (San Diego, Calif.). Both cell types were cultured in 96-well plates for the duration of the assay. 7,500 Caki-1 cells were plated 24 hours prior to dosing with RSL3, with a final DMSO concentration of 0.5%. 24 hours post-treatment, THP1-Dual cells (25,000 cells/well) were added to the Caki-1 cells. 24 hours later, 30 μl of supernatant was mixed with either 200 μl QuantiBlue (InvivoGen, San Diego, Calif.) or 50 μl QuantiLuc and absorbance or luminescence was recorded on a Molecular Devices plate reader. […] Subsequently, the THP1 supernatant was assessed for NFKB reporter activity. Caki-1 cells were acquired from ATCC and THP1-Dual cells acquired from InvivoGen (San Diego, Calif.). Both cell types were cultured in 96-well plates for the duration of the assay.

[8] = HT1080 cells treated 24 hours, co-culture 24 hours, vs DMSO, FIG. 1B, 1D
[9] = HT1080 cells treated with ferroptosis, apoptosis or necrosis inducer, FIG. 15B
[10] = ferroptosis, apoptosis, necrosis inducers compared, FIG. 15A

**Q.** What does the source list for CC(C)Oc1ccc(C(=O)Cn2ccnc2)cc1-n1c(CN2CCN(C(=O)COc3ccc(Cl)cc3)CC2)nc2ccccc2c1=O [IKE, imidazole ketoerastin]?
**A.** NFKB signaling in THP1 monocytes [1, 8]: elicited NFKB signaling in THP1 monocytes; viability of HT1080 cells ([2]; FIG. 1A, 1C): negatively affected the viability; increase in NFkB activity relative to the baseline [3]: 2.4 fold

**Q.** What does the source list for CC(=O)O[C@@]12CO[C@@H]1C[C@H](O)[C@@]1(C)C(=O)[C@H](O)C3=C(C)[C@@H](OC(=O)[C@H](O)[C@@H](NC(=O)OC(C)(C)C)c4ccccc4)C[C@@](O)([C@@H](OC(=O)c4ccccc4)[C@H]21)C3(C)C [docetaxel, Docetaxel]?
**A.** NFKB signaling in THP1 monocytes [1, 9]: did not have this same effect; viability of HT1080 cells [2, 10]: negatively affected the viability

**Q.** OO [Example H2O2, H2O2] was tested. Which “NFKB signaling in THP1 monocytes” value [1, 9] did it give?
**A.** Its value is “did not have this same effect”.

**Q.** And the “viability of HT1080 cells” value [2, 10]?
**A.** Its value is “negatively affected the viability”.

**Q.** With CCOC(=O)c1ccc(NC2CCCCC2)c(N)c1 [Ferrostatin-1] as the molecule, how does the “effect on GPX4 inhibitor-decreased viability of Caki-1 renal carcinoma cells” value ([4]; 1 μM Ferrostatin with RSL3 or ML162, 24 hours) read?
**A.** Its value is “attenuated”.

**Q.** What about the “effect on GPX4 inhibitor-increased NFKB activity in THP1 cells” value ([5]; A20 cells, 1 μM Ferrostatin-1 with RSL3, ML162 or ML210) of the same molecule?
**A.** The value was “attenuated”.

**Q.** And the “effect on GPX4 inhibitor-decreased viability of A20 lymphoma cells” value ([6]; 1 μM Ferrostatin-1 with RSL3, ML162 or ML210, 24 hours)?
**A.** Its value is “attenuated”.

**Q.** And the “effect on GPX4 inhibitor-increased NFKB activity in THP1 cells” value ([7]; Caki-1 cells, 1 μM Ferrostatin with RSL3 or ML162)?
**A.** Its value is “attenuated”.

**Q.** Which “NFKB activity in THP1 cells, dose dependence” value [5] does the source give for Cc1onc(C(=O)N2CCN(C(c3ccc(Cl)cc3)c3ccc(Cl)cc3)CC2)c1[N+](=O)[O-] [ML210] here?
**A.** The value was “increased NFKB activity in THP1 cells in a dose dependent manner”.

**Q.** What about the “viability of A20 lymphoma cells, dose dependence” value [6] of the same molecule?
**A.** The value was “decreased viability of the cells in a dose dependent manner”.

**Q.** What does the source list for CC(C)Oc1ccc(CN2CCNCC2)cc1-n1c(CN2CCN(C(=O)COc3ccc(Cl)cc3)CC2)nc2ccccc2c1=O [PE, piperazine erastin]?
**A.** NFKB signaling in THP1 monocytes [1, 8]: elicited NFKB signaling in THP1 monocytes; viability of HT1080 cells ([2]; FIG. 1A, 1C): negatively affected the viability

**Q.** What does the source list for COc1ccc(N(C(=O)CCl)C(C(=O)NCCc2ccccc2)c2cccs2)cc1Cl (centres unmarked) [ML162]?
**A.** viability of Caki-1 renal carcinoma cells, dose dependence ([4]; GPX4 inhibitor various doses, 24 hours, FIG. 13A, 14A): decreased viability of the cells in a dose dependent manner; NFKB activity in THP1 cells, dose dependence [5]: increased NFKB activity in THP1 cells in a dose dependent manner; viability of A20 lymphoma cells, dose dependence [6]: decreased viability of the cells in a dose dependent manner; NFKB activity in THP1 cells, dose dependence ([7]; Caki-1 cells treated with RSL3 or ML162, FIG. 13B, 14B): increased NFKB activity in THP1 cells in a dose dependent manner

**Q.** How did the “increase in NFkB activity relative to the baseline” value [3] turn out when CCOc1ccccc1-n1c(C(C)N2CCN(C(=O)COc3ccc(Cl)cc3)CC2)nc2ccccc2c1=O (centres unmarked) [Erastin] was run?
**A.** Its value is 3.2 fold.
